Laboratory results from PubChem BioAssay (NCI).
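Growth conditions: 96-well plates. Treatment: test compound, 48 hours, 5 concentrations. Analysis: linear interpolation between bracketing concentrations; unreached endpoints set to highest concentration. GI50 marks 50% less growth. TGI: concentration producing complete growth inhibition.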

How the values were obtained:
Experiment in all cases: growth of human tumour cells (NCI), 48 h
TK-10 renal = test system: TK-10 renal
HCT-15 colon = test system: HCT-15 colon
786-0 renal = test system: 786-0 renal
SF-268 CNS = test system: SF-268 CNS
EKVX NSCLC = test system: EKVX NSCLC
IGROV1 ovarian = test system: IGROV1 ovarian
HCC-2998 colon = test system: HCC-2998 colon
SK-MEL-5 melanoma = test system: SK-MEL-5 melanoma
UACC-257 melanoma = test system: UACC-257 melanoma
OVCAR-3 ovarian = test system: OVCAR-3 ovarian

| Structure (SMILES) | GI50 (TK-10 renal) [µM] | TGI (TK-10 renal) [µM] | GI50 (HCT-15 colon) [µM] | TGI (HCT-15 colon) [µM] | GI50 (786-0 renal) [µM] | TGI (786-0 renal) [µM] | GI50 (SF-268 CNS) [µM] | TGI (SF-268 CNS) [µM] | GI50 (EKVX NSCLC) [µM] | TGI (EKVX NSCLC) [µM] | GI50 (IGROV1 ovarian) [µM] | TGI (IGROV1 ovarian) [µM] | GI50 (HCC-2998 colon) [µM] | TGI (HCC-2998 colon) [µM] | GI50 (SK-MEL-5 melanoma) [µM] | TGI (SK-MEL-5 melanoma) [µM] | GI50 (UACC-257 melanoma) [µM] | TGI (UACC-257 melanoma) [µM] | GI50 (OVCAR-3 ovarian) [µM] | TGI (OVCAR-3 ovarian) [µM] |
| --- | --- | --- | --- | --- | --- | --- | --- | --- | --- | --- | --- | --- | --- | --- | --- | --- | --- | --- | --- | --- |
| N#Cc1ncc(/N=C/c2ccc(N(CCCl)CCCl)cc2)s1 | 23.2 | 97.4 | 21.8 | > 100 | 4.52 | 20.3 | 15.6 | > 100 | 42.2 | > 100 | 40.4 | > 100 | 23.9 | > 100 | 27.9 | > 100 | 13.3 | 63 | 14.5 | 45 |
| NC(=O)OCC(COc1ccc(Cl)cc1)OC(=O)c1ccccc1Cl (centres undefined) |  | 79.9 |  | 30 |  | 36.6 |  | 79.1 |  | 70 |  | 59.9 |  | 43.5 |  | 33.1 |  | 37.8 |  | 40.7 |
| C=C(C)[C@@H]1CC[C@]2(C(=O)NCCCN)CC[C@]3(C)[C@H](CC[C@@H]4[C@@]5(C)CC[C@H](O)C(C)(C)[C@@H]5CC[C@]43C)[C@@H]12 | 23.9 | 60.4 | 21.7 | > 100 | 23.2 | 63.4 | 23 | 63.8 | 23.3 | 76.1 | 21.5 | > 100 | 21.4 | 77.1 | 19.4 | 48.6 | 20.6 | 55.3 | 15.7 | 39.5 |
| CCn1c(-c2nonc2N)nc2cncc(C(=O)N3CCNCC3)c21 | > 25 | > 25 | > 25 | > 25 | > 25 | > 25 | > 25 | > 25 | > 25 | > 25 | > 25 | > 25 | > 25 | > 25 | > 25 | > 25 | > 25 | > 25 | > 25 | > 25 |
| CCOP(=O)(OCC)C1CCCCOC1=O (centres undefined) |  | > 100 |  | > 100 |  | > 100 |  | > 100 |  | > 100 |  | > 100 |  | > 100 |  | > 100 |  | > 100 |  | > 100 |
| C=C1C(=O)OC2CC3(C)C=CC(=O)C(=C)C3CC12 (centres undefined) |  | 4.79 |  | 4.09 |  | 3.36 |  | 6.91 |  | 6.85 |  | 5.04 |  | 6.55 |  | 3.48 |  | 3.1 |  | 7.19 |
| O=C(O)CSSCC(=O)O |  | > 100 |  | > 100 |  | > 100 |  | > 100 |  | > 100 |  | > 100 |  | > 100 |  | > 100 |  | > 100 |  | > 100 |
| N#CC(C#N)=Cc1ccc(-c2ccc(-c3nc4ccccc4s3)cc2)o1 | 17.2 | 36.9 | 11.9 | 50.4 | 3.15 | 16 | 27.6 | > 100 | 25.7 | > 100 | 3.7 | 56.3 | 18.9 | 45.1 | 6.01 | 76.2 | 92.9 | > 100 | 66.9 | > 100 |
| COC12C=CC(CC1)c1c(O)ccc(O)c12 (centres undefined) |  | > 67.1 |  | > 55.9 |  | > 100 |  | > 31.6 |  | > 100 |  | > 100 |  | > 100 |  | > 100 |  | > 100 |  | 44.2 |
| CCN(CC)c1ccc(/C=C/c2cc(C)c3ccccc3n2)cc1 | 4.47 | 13.8 | 2.27 | 26.4 | 4.51 | 16.2 | 5.46 | 74.4 | 4.95 | 44.9 | 2.81 | 25.7 | 4.11 | 81.1 | 3.1 | 11.8 | 5.18 | 42.8 | 1.82 | 4.78 |
| COc1cc2c(cc1OC)-c1ccc3cc4c(cc3c1N(CCN1CCCC1)C2)OCO4 | 3.46 | 12.5 | 1.5 | 3.4 | 0.477 | 1.92 | 0.36 | 2 | 0.953 | 7.31 | 0.517 | 2.37 | 1.09 | 2.43 | 1.48 | 3.09 | 9.81 | 22.2 | 0.854 | 2.23 |
| CN(C)CCNC(=O)c1cccn2c(=O)c3cc4ccccc4cc3nc12 | 0.399 | 9.8 | 0.2 | > 100 | 0.11 | 14.1 | 0.126 | 3.38 | 0.353 |  | 0.0396 | 2.17 | 0.241 | 1.06 | 0.131 | 0.476 | 0.268 | 1.14 | 0.16 | 0.573 |
| CCCN1C(=O)/C(=c2\sc3n(c2=O)C2C(NN=3)N(CC)C(=O)N2CC)c2ccccc21 (centres undefined) | 3.62 | 22.3 | 0.416 | > 52.4 | 0.89 | 16.5 | 0.959 | 19 | 0.729 | > 57.2 | 0.876 | 14.1 | 1.56 | 19.6 | 0.369 | 3.15 | 1.22 | 14 | 0.289 | 0.8 |
| COc1ccc2c(c1)CCC1C2CCC2(C)C1CCC2(O)CNC(=O)CCCCC1CCSS1 (centres undefined) | 17.7 | 57 | 3.56 | > 100 | 17.7 | 64 | 15.9 | > 100 | 48 | > 100 | 22.7 | > 100 | 2.13 | 5.52 | 7.15 | > 100 | 31.9 | > 100 | 8.65 | 29.2 |
| CC1Oc2cc3c(-c4c(O)cc(O)c5c(O)c6c(cc45)OC(C)C(C)C6=O)c(O)cc(O)c3c(O)c2C(=O)C1C (centres undefined) |  | 5.45 |  | 1.15 |  | 1.21 |  | 2.46 |  | 0.711 |  | 1.3 |  | 1.63 |  | 0.461 |  | 1.68 |  | 0.816 |
| Cc1cc(N2CCCCC2)nc(N(CCNc2ccnc3cc(Cl)ccc23)Cc2ccco2)n1 | 1.94 | 4.08 | 1.44 | 3.3 | 1.66 | 3.07 | 2.57 | 6.53 | 2.09 | 6.07 | 1.28 | 3.65 | 2.14 | 4.48 | 1.68 | 3.07 | 2.35 | 5.79 | 1.74 | 3.14 |
| CCN=C1C=CC(=C(c2ccc(N(C)C)cc2)c2ccc(N(C)C)cc2)c2ccccc21 | 0.0913 | 1.31 | 0.294 | 1.31 | 0.0866 | 0.37 | 0.114 | 0.981 | 0.0445 | 0.488 | 0.0701 | 0.711 | 0.137 | 0.696 | 0.0609 | 0.213 | 0.0234 | 0.0592 | 0.0301 | 0.121 |
| CCN1C(=O)N(CC)C2C1NN=c1s/c(=C3\C(=O)N(C(C)C)c4ccccc43)c(=O)n12 (centres undefined) | 1.33 | > 69.4 | 0.322 | > 100 | 0.852 | 17.7 | 0.722 | > 70.3 | 0.606 | > 100 | 0.586 | > 100 | 0.357 | > 20.8 | 0.394 | 2.33 | > 37.7 | > 100 | 0.294 | 0.841 |
| C=CCC(N[C@H](CO)C(C)C)c1cn(C(=O)OCC)c2ccccc12 (some centres undefined) | 13.7 | 44.1 | 32.4 | > 100 | 28.4 | 72.7 | 33.4 | > 100 | 22.9 | 77 | 7.81 | 57.1 | 17 | 33.6 | 10.2 | 23.7 | 18.3 | 44.2 | 16.6 | 43.3 |
| CCOC(=O)Cc1c[nH]c(=S)[nH]c1=O | > 100 | > 100 | > 100 | > 100 | > 100 | > 100 | > 100 | > 100 | > 100 | > 100 | > 100 | > 100 | > 100 | > 100 | > 100 | > 100 | > 100 | > 100 | > 100 | > 100 |
| CCc1c(C)[nH]c(/C=C2\N=C(c3ccc[nH]3)C=C2OC)c1C | 0.276 | 8.85 | 0.0935 | 3.75 | 0.177 | 0.675 | 0.224 | 11.3 | 0.707 | 9.93 | 0.274 | 3.53 | 0.451 | 4.65 | 0.159 | 0.545 | 0.432 | 2.65 | 0.143 | 3.18 |
| O=C(CC1Sc2ccccc2NC1=O)Nc1cc(Cl)ccc1Cl (centres undefined) |  | > 100 |  | > 100 |  | > 100 |  | > 100 |  | > 100 |  | > 100 |  | > 100 |  | > 100 |  | > 100 |  | > 100 |
| O=C(O)[C@@H]1C2CC([C@@H]1C(=O)O)[C@H](N1C(=O)CCC1=O)[C@@H]2Br (some centres undefined) |  | > 100 |  | > 100 |  | > 100 |  | > 100 |  | > 100 |  | > 100 |  | > 100 |  | > 100 |  | > 100 |  | > 100 |
| COC(=O)c1[nH]c(=S)[nH]c(=O)c1-c1ccc(Cl)cc1 |  | > 50 |  | > 50 |  | > 50 |  | > 50 |  | > 50 |  | > 50 |  | > 50 |  | > 50 |  | > 50 |  | > 50 |
| CCN(CC)CCOc1ccc(C(=C(C)c2ccc(Cl)cc2)c2ccc(OCCN(CC)CC)cc2)cc1 | 0.698 | 1.67 | 0.556 | 1.08 | 0.597 | 1.12 | 0.659 | 1.49 | 0.989 | 3.5 | 0.609 | 1.19 | 0.574 | 1.06 | 0.592 | 1.06 | 0.592 | 1.17 | 0.643 | 1.36 |
